{"source": "patent US5843941A", "about": "“Ras farnesyl transferase inhibitors” (Genentech, Inc., priority 1994, dated 1998)", "key": {"[1]": {"tested_on": "H-ras(Val12)-transformed rat-1 fibroblasts (rat 2.2 cells)", "assay": "Changes in morphology of H-ras-transformed cells", "assay_type": "cell-based", "settings": "5 days", "protocol": "Compound 27A (denoted as BG269A in the figure) and compound 27B (denoted as BG269B in the figure) were added at 250 μM to test whether these compounds would induce reversion to a more normal phenotype as had been previously shown with microinjection of anti-Ras antibodies (see Feramisco, J. R. et al Nature 314, 639 (1985)). The H-ras transformed cells, denoted as rat 2.2 cells, were generated by transfection of rat-1 fibroblasts as described (see Seeburg, P. H., Colby, W. W., Capon, D. J., Goeddel, D. V., and Levinson, A. D. Nature 312,71 (1984)). Cells that overgrew the monolayer were extracted and plated onto agar to obtain a cell line displaying a fully transformed phenotype. Untransformed rat-1 fibroblasts and src-transformed rat-1 fibroblasts were also treated. The src-transformed cells were generated by co-transfection of rat-1 fibroblasts with pSV3.Neo.src, a vector containing the gene for src as well as the gene that confers G418 resistance, both under control of SV40 early promoters. G418-resistant cell clones that diplayed a transformed phenotype were used to generate the cell line. On day 0, cells were plated in monolayer culture at 3×10^3 cells per well (24-well plates) in 1 ml DMEM supplemented with 10% FCS, 100 U/ml penicillin, 10 μg/ml streptomycin, 2% DMSO, and 0.5 mM DTT with and without 200 μM inhibitor. On day 3, the cells were refed with the same medium. On day 5, the cells were photographed under contrast at a magnification of 100X. […] This change in morphology is remarkably similar to that seen following injection of anti-ras antibodies into ras-transformed cells (see Feramisco, J. R. et al Nature 314, 639 (1985)). Rat-1 fibroblasts transformed with the src oncogene also grew in a multilayered pattern (FIG. 6C), but this was not affected by compound 27A or compound 27B (FIG. 6D)."}, "[2]": {"tested_on": "untransformed rat-1 fibroblasts", "assay": "Changes in morphology of untransformed cells", "assay_type": "cell-based", "settings": "FIG. 6E and F", "protocol": "Compound 27A (denoted as BG269A in the figure) and compound 27B (denoted as BG269B in the figure) were added at 250 μM to test whether these compounds would induce reversion to a more normal phenotype as had been previously shown with microinjection of anti-Ras antibodies (see Feramisco, J. R. et al Nature 314, 639 (1985)). The H-ras transformed cells, denoted as rat 2.2 cells, were generated by transfection of rat-1 fibroblasts as described (see Seeburg, P. H., Colby, W. W., Capon, D. J., Goeddel, D. V., and Levinson, A. D. Nature 312,71 (1984)). Cells that overgrew the monolayer were extracted and plated onto agar to obtain a cell line displaying a fully transformed phenotype. Untransformed rat-1 fibroblasts and src-transformed rat-1 fibroblasts were also treated. The src-transformed cells were generated by co-transfection of rat-1 fibroblasts with pSV3.Neo.src, a vector containing the gene for src as well as the gene that confers G418 resistance, both under control of SV40 early promoters. G418-resistant cell clones that diplayed a transformed phenotype were used to generate the cell line. On day 0, cells were plated in monolayer culture at 3×10^3 cells per well (24-well plates) in 1 ml DMEM supplemented with 10% FCS, 100 U/ml penicillin, 10 μg/ml streptomycin, 2% DMSO, and 0.5 mM DTT with and without 200 μM inhibitor. On day 3, the cells were refed with the same medium. […]"}, "CAAX farnesyltransferase": {"target": "CAAX farnesyltransferase (Rattus norvegicus, UniProt Q02293+Q04631)", "sequence (Q02293 whole entry, one chain of several)": "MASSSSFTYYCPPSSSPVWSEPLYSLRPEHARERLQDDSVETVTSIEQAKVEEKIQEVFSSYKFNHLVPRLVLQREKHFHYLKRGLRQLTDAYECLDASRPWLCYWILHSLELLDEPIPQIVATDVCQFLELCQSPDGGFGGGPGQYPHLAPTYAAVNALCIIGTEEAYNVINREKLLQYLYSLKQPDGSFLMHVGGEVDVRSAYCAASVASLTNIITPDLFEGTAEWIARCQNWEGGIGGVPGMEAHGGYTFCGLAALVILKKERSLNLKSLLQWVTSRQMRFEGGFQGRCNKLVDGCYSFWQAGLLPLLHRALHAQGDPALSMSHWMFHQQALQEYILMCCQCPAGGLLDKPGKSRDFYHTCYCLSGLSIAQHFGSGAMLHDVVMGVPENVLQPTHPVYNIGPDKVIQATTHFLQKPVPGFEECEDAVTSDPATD", "assay": "In vitro inhibition of CAAX farnesyltransferase", "assay_type": "biochemical", "parameters": "purified to homogeneity from rat brain homogenates; from tissue; host or cells: rat brain; alternatively recombinant enzyme from a baculovirus expression system", "settings": "FIG. 1A", "in_short": "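Native or recombinant (baculovirus-infected cells, Q-Sepharose purified) farnesyltransferase incubated 30 min at 37 °C. [3H]farnesyl transfer to p21H-ras measured by SDS/trichloroacetic acid precipitation, nitrocellulose filtration and scintillation counting.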"}, "[3]": {"tested_on": "HT 1080 human tumor cells in nude mouse", "assay": "Survival of nude mice after intraperitoneal implantation of HT 1080 human tumor cells", "assay_type": "in vivo", "settings": "20 mg/kg daily", "protocol": "Implantation of […] HT 1080 cells in the peritoneal cavity of the nude mouse allows seeding and growth of tumor cell masses within the peritoneum. […] In this experiment, fourteen nude mice were injected on day 0 with […] HT 1080 cells via intraperitoneal injection. Half the animals (seven) immediately began receiving daily treatment with Compound 37B at 20 mg/kg (formulated in approx. 0.25 ml of 1% DMSO, 20% glycerol, 10 mM NaOAc, 130 mM NaCl, pH 4.5). The other seven animals received daily injection of the above vehicle alone."}}, "note": "Entries after “also recorded” stand apart in the source; their conditions may differ.", "data": [{"compound": "CSCC[C@H](NC(=O)CN1C(=O)C(N(C)C(=O)[C@@H](N)CS)N=C(c2ccccc2)c2ccccc21)C(=O)O", "note": "(single isomer, unassigned) [27B]", "values": [{"measurement": "effect on transformed phenotype (morphology)", "setting": "[1]; FIG. 6A/6B", "value": "reversed the transformed phenotype"}, {"measurement": "effect on cell density", "setting": "[1]; FIG. 6B", "value": "grew to lower cell density"}, {"measurement": "effect on morphology of untransformed cells", "setting": "[2]", "value": "no apparent effect on the morphology of untransformed rat-1 fibroblasts"}, {"measurement": "IC50", "setting": "CAAX farnesyltransferase; recombinant enzyme, read-out: concentration inhibiting recombinant ras CAAX farnesyltransferase by 50%", "value": 0.26, "unit": "nM"}, {"measurement": "fold lower inhibitory concentration than tetrapeptide CVFM", "setting": "CAAX farnesyltransferase; vs CVFM", "value": "~200", "unit": "fold"}]}, {"compound": "COC(=O)[C@H](CCSC)NC(=O)CN1C(=O)C(N(C)C(=O)[C@@H](N)CS)N=C(c2ccccc2)c2ccccc21", "note": "(single isomer, unassigned) [37B]", "values": [{"measurement": "mortality / survival of mice with IP tumor", "setting": "[3]; over 25 days, FIG. 8", "value": "caused a reduction in mortality over 25 days; also recorded: blocked the rapid mortality associated with IP implantation of tumor cells"}, {"measurement": "tumor cell masses in the peritoneum at end of treatment", "setting": "[3]; dissection of all treated animals", "value": "all of the treated animals showed the presence of tumor cell masses in the peritoneum"}]}]}
